Assay [1] deals with T1, Mcl-1 (Homo sapiens, UniProt Q07820). Put plainly: direct fluorescence anisotropy binding. A general note: In fluorescence polarisation assays a small probe gives low polarisation when free and higher when bound to something large.
Assay [2] concerns the target T2, Bfl-1 (Homo sapiens, UniProt Q16548).
T2 sequence (Q16548 1-151 limits assumed): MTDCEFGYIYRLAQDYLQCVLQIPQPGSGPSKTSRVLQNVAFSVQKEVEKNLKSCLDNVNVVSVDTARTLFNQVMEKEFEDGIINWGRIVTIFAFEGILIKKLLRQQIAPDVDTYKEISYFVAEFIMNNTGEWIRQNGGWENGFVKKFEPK
Put plainly: direct fluorescence anisotropy binding.

In assay [3] the target is T3, Bcl-w (Homo sapiens, UniProt Q92843).
T3 sequence (Q92843 1-164 limits assumed): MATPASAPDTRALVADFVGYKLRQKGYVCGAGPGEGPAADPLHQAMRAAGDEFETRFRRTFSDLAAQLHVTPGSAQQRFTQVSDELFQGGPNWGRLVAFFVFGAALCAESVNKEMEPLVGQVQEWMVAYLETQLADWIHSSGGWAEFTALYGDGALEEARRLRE
In words: direct fluorescence anisotropy binding.

Assay [4] deals with Bcl-xL (Homo sapiens, UniProt Q07817). Put plainly: direct fluorescence anisotropy binding.
Assay [5] deals with Bcl-2 (Homo sapiens, UniProt P10415). Put plainly: direct fluorescence anisotropy binding.
The target of the next assay is T4, KSBcl-2 (Human herpesvirus 8 type P, UniProt F5HGJ3).
T4 sequence (F5HGJ3 1-150): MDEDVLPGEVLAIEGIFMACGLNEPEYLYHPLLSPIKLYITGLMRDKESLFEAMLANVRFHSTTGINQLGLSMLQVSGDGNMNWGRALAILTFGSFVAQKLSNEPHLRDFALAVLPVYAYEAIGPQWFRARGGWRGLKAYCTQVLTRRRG
Put plainly: direct fluorescence anisotropy binding. On the set-up: species or system Kaposi sarcoma herpesvirus.

Assay [6] addresses T1, Mcl-1. In words: competition fluorescence anisotropy vs fluoresceinated Bim. As to conditions: biochemical competition binding experiments; four other human Bcl-2 paralogs.
The subject of assay [7] is Bcl-xL. Particulars: NoxaA BH3 peptide from murine Noxa; cited from earlier work.
In assay [8] the test system is Bcl-2. Particulars: NoxaA BH3 peptide from murine Noxa; cited from earlier work.
Assay [9] has as its system Bcl-w. Particulars: NoxaA BH3 peptide from murine Noxa; cited from earlier work.
For assay [10], the system named is Bfl-1. Particulars: NoxaA BH3 peptide from murine Noxa; cited from earlier work.

SMILES strings stand for the structures. Bounds are passed on as bounds.

The Kd is the concentration at which binding is half-saturated. High values mean weaker binding, low ones tighter binding.

T1 sequence (Q07820 172-327 limits assumed): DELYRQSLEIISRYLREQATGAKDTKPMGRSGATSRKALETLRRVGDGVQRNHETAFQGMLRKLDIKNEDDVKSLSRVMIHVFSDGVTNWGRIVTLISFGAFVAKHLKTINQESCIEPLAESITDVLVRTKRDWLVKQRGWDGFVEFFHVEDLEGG
Sequence of Bcl-2 (Homo sapiens, UniProt P10415) (P10415 1-217 limits assumed): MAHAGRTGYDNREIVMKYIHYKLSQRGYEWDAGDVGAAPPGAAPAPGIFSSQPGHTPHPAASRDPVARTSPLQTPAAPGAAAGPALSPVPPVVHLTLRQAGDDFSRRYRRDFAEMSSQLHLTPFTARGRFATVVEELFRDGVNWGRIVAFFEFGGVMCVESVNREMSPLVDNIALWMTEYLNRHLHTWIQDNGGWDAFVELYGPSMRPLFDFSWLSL
Sequence of Bcl-xL (Homo sapiens, UniProt Q07817) (Q07817 1-209 limits assumed): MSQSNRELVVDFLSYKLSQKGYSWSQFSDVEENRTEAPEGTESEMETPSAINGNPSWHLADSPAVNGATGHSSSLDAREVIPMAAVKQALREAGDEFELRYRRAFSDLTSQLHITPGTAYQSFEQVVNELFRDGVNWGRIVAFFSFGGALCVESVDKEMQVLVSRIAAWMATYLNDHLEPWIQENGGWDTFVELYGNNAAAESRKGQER

Turning to `CC[C@H](C)[C@H](NC(=O)[C@H](CCCNC(=N)N)NC(=O)[C@H](CCCNC(=N)N)NC(=O)[C@H](CC(C)C)NC(=O)[C@H](CCC(=O)O)NC(=O)[C@H](CCC(N)=O)NC(=O)[C@@H](NC(=O)[C@@H](NC(=O)[C@H](Cc1c[nH]c2ccccc12)NC(=O)[C@@H](NC(=O)[C@H](CCC(=O)O)NC(=O)[C@@H]1CCCN1C(=O)[C@@H](N)CCCNC(=N)N)[C@@H](C)CC)[C@@H](C)CC)[C@@H](C)O)C(=O)NCC(=O)N[C@@H](CC(=O)O)C(=O)N[C@@H](CCC(=O)O)C(=O)N[C@@H](Cc1ccccc1)C(=O)N[C@@H](CC(N)=O)C(=O)N[C@@H](C)C(=O)N[C@@H](Cc1ccc(O)cc1)C(=O)N[C@@H](Cc1ccc(O)cc1)C(=O)N[C@@H](C)C(=O)N[C@@H](CCCNC(=N)N)C(N)=O` [Bim_A2eT], at Mcl-1 [1], the Kd was under 1 nM.

`CC[C@H](C)[C@H](NC(=O)[C@H](CCCNC(=N)N)NC(=O)[C@H](CCCNC(=N)N)NC(=O)[C@H](CC(C)C)NC(=O)[C@H](CCC(=O)O)NC(=O)[C@H](CCC(N)=O)NC(=O)[C@@H](NC(=O)[C@@H](NC(=O)[C@H](Cc1c[nH]c2ccccc12)NC(=O)[C@@H](NC(=O)[C@H](CCC(=O)O)NC(=O)[C@@H]1CCCN1C(=O)[C@@H](N)CCCNC(=N)N)[C@@H](C)CC)[C@@H](C)CC)[C@@H](C)O)C(=O)NCC(=O)N[C@@H](CC(=O)O)C(=O)N[C@@H](CCC(=O)O)C(=O)N[C@H](C(=O)N[C@@H](CC(N)=O)C(=O)N[C@@H](C)C(=O)N[C@@H](Cc1ccc(O)cc1)C(=O)N[C@@H](Cc1ccc(O)cc1)C(=O)N[C@@H](C)C(=O)N[C@@H](CCCNC(=N)N)C(N)=O)[C@@H](C)CC` [Bim_A2eT_F4aI]: the Kd at Mcl-1 [1] was under 1 nM; on Bfl-1 [2], 7.9 ± 2.1 nM; on Bcl-w [3] it was 16 ± 4.1 nM; on Bcl-xL [4], 110 ± 62 nM; at Bcl-2 [5], 150 ± 43 nM.

For `CC[C@H](C)[C@H](NC(=O)[C@H](CCCNC(=N)N)NC(=O)[C@H](CCCNC(=N)N)NC(=O)[C@H](CC(C)C)NC(=O)[C@H](CCC(=O)O)NC(=O)[C@H](CCC(N)=O)NC(=O)[C@@H](NC(=O)[C@H](CCSC)NC(=O)[C@H](Cc1c[nH]c2ccccc12)NC(=O)[C@@H](NC(=O)[C@H](CCC(=O)O)NC(=O)[C@@H]1CCCN1C(=O)[C@@H](N)CCCNC(=N)N)[C@@H](C)CC)[C@@H](C)O)C(=O)NCC(=O)N[C@@H](CC(=O)O)C(=O)N[C@@H](CCC(=O)O)C(=O)N[C@@H](Cc1ccccc1)C(=O)N[C@@H](CC(N)=O)C(=O)N[C@@H](C)C(=O)N[C@@H](Cc1ccc(O)cc1)C(=O)N[C@@H](Cc1ccc(O)cc1)C(=O)N[C@@H](C)C(=O)N[C@@H](CCCNC(=N)N)C(N)=O` [Bim_A2eT_I2dM], the Kd on Mcl-1 [1] was under 1 nM.

Regarding `CC[C@H](C)[C@H](NC(=O)[C@H](CCC(=O)O)NC(=O)[C@@H]1CCCN1C(=O)[C@@H](N)CCCNC(=N)N)C(=O)N[C@@H](Cc1c[nH]c2ccccc12)C(=O)N[C@H](C(=O)N[C@H](C(=O)N[C@@H](CCC(N)=O)C(=O)N[C@@H](CCC(=O)O)C(=O)N[C@@H](CC(C)C)C(=O)N[C@@H](CCCNC(=N)N)C(=O)N[C@@H](CCCNC(=N)N)C(=O)N[C@@H](CC(C)C)C(=O)NCC(=O)N[C@@H](CC(=O)O)C(=O)N[C@@H](CCC(=O)O)C(=O)N[C@@H](Cc1ccccc1)C(=O)N[C@@H](CC(N)=O)C(=O)N[C@@H](C)C(=O)N[C@@H](Cc1ccc(O)cc1)C(=O)N[C@@H](Cc1ccc(O)cc1)C(=O)N[C@@H](C)C(=O)N[C@@H](CCCNC(=N)N)C(N)=O)[C@@H](C)O)[C@@H](C)CC` [Bim_A2eT_I3dL], the Kd on Mcl-1 [1] is under 1 nM.

`CC[C@H](C)[C@H](NC(=O)[C@H](CCC(=O)O)NC(=O)[C@H](CC(=O)O)NC(=O)CNC(=O)[C@H](CC(C)C)NC(=O)[C@H](CCCNC(=N)N)NC(=O)[C@H](CCCNC(=N)N)NC(=O)[C@H](CC(C)C)NC(=O)CNC(=O)[C@H](CCC(N)=O)NC(=O)[C@@H](NC(=O)[C@H](CCSC)NC(=O)[C@H](Cc1c[nH]c2ccccc12)NC(=O)[C@@H](NC(=O)[C@H](CCC(=O)O)NC(=O)[C@@H]1CCCN1C(=O)[C@H](CCCNC(=N)N)NC(C)=O)[C@@H](C)CC)[C@@H](C)O)C(=O)N[C@@H](CC(N)=O)C(=O)N[C@@H](C)C(=O)N[C@@H](Cc1ccc(O)cc1)C(=O)N[C@@H](Cc1ccc(O)cc1)C(=O)N[C@@H](C)C(=O)N[C@@H](CCCNC(=N)N)C(N)=O` [MS1] registered a Kd at KSBcl-2 of 2.9 ± 0.68 nM. Also, the “specificity for Mcl-1 over Bcl-xL, Bcl-2, Bcl-w and Bfl-1” value at Mcl-1 [6] is at least 40 fold.

`CC[C@H](C)[C@H](NC(=O)[C@H](CCC(=O)O)NC(=O)[C@H](CC(=O)O)NC(=O)CNC(=O)[C@H](CC(C)C)NC(=O)[C@H](CCCNC(=N)N)NC(=O)[C@H](CCC(N)=O)NC(=O)[C@H](CC(C)C)NC(=O)[C@H](CO)NC(=O)[C@H](CCC(N)=O)NC(=O)[C@@H](NC(=O)[C@H](CC(C)C)NC(=O)[C@H](Cc1c[nH]c2ccccc12)NC(=O)[C@@H](NC(=O)[C@H](CCC(=O)O)NC(=O)[C@@H]1CCCN1C(=O)[C@H](CCCNC(=N)N)NC(C)=O)[C@@H](C)CC)[C@@H](C)O)C(=O)N[C@@H](CC(N)=O)C(=O)N[C@@H](C)C(=O)N[C@@H](Cc1ccc(O)cc1)C(=O)N[C@@H](Cc1ccc(O)cc1)C(=O)N[C@@H](C)C(=O)N[C@@H](CCCNC(=N)N)C(N)=O` [MS2] had a Kd on KSBcl-2 of under 1 nM.

Regarding `CC[C@H](C)[C@H](NC(=O)[C@H](CCC(=O)O)NC(=O)[C@H](CC(=O)O)NC(=O)CNC(=O)[C@H](CC(C)C)NC(=O)[C@H](CCCNC(=N)N)NC(=O)[C@H](CCC(N)=O)NC(=O)[C@H](CC(C)C)NC(=O)[C@H](Cc1c[nH]cn1)NC(=O)[C@H](CCC(N)=O)NC(=O)[C@@H](NC(=O)[C@H](CC(C)C)NC(=O)[C@H](Cc1c[nH]c2ccccc12)NC(=O)[C@@H](NC(=O)[C@H](CCC(=O)O)NC(=O)[C@@H]1CCCN1C(=O)[C@@H](N)CCCNC(=N)N)[C@@H](C)CC)[C@@H](C)O)C(=O)N[C@@H](CC(N)=O)C(=O)N[C@@H](C)C(=O)N[C@@H](Cc1ccc(O)cc1)C(=O)N[C@@H](Cc1ccc(O)cc1)C(=O)N[C@@H](C)C(=O)N[C@@H](CCCNC(=N)N)C(N)=O` [MS3], the Kd at Mcl-1 [1] was 2 ± 1.2 nM; on Bcl-2 [5], over 3000 nM.

Regarding `CC[C@H](C)[C@H](NC(=O)[C@H](CCCCN)NC(=O)[C@H](CCCNC(=N)N)NC(=O)[C@H](CC(C)C)NC(=O)[C@H](CCC(N)=O)NC(=O)[C@H](C)NC(=O)[C@H](C)NC(=O)[C@H](Cc1ccccc1)NC(=O)[C@H](CCC(=O)O)NC(=O)[C@@H]1CCCN1C(=O)[C@@H]1CCCN1C(=O)[C@H](CC(C)C)NC(=O)[C@H](CCC(=O)O)NC(=O)[C@H](C)NC(C)=O)C(=O)NCC(=O)N[C@@H](CC(=O)O)C(=O)N[C@@H](CCCCN)C(=O)N[C@H](C(=O)N[C@@H](Cc1ccc(O)cc1)C(=O)N[C@@H](CS)C(N)=O)C(C)C` [NoxaA], the “no binding to Bcl-xL up to” value in the assay with Bcl-xL [7] is on record as over 2500 nM. Besides, the “no binding to Bcl-2 up to” value with Bcl-2 [8] was over 2500 nM. Moreover, the “no binding to Bcl-w up to” value in the assay on Bcl-w [9] is reported as over 2500 nM. The “no binding to Bfl-1 up to” value in the assay on Bfl-1 [10] is over 2500 nM.

The values are drawn from paper PMC4168798 (ACS Chemical Biology, 2014).
